Source: patent publication US11306092B2, “Amino indole compounds useful as TLR inhibitors” (BRISTOL-MYERS SQUIBB COMPANY, priority 2017, dated 2022)
Where a name gives a salt, the structure may show the parent alone.

Tests used:
Assay type in all cases: cell-based
[1] = target: T1, human TLR7 (Homo sapiens, UniProt Q9NYK1); assay: TLR7 inhibition reporter assay (HEK-Blue SEAP reporter); details: HEK-Blue cells overexpressing human TLR7; gardiquimod 7.5 μM; 22 hour incubation
T1 construct: host or cells: HEK-Blue cells
T1 sequence (Q9NYK1 27-1049): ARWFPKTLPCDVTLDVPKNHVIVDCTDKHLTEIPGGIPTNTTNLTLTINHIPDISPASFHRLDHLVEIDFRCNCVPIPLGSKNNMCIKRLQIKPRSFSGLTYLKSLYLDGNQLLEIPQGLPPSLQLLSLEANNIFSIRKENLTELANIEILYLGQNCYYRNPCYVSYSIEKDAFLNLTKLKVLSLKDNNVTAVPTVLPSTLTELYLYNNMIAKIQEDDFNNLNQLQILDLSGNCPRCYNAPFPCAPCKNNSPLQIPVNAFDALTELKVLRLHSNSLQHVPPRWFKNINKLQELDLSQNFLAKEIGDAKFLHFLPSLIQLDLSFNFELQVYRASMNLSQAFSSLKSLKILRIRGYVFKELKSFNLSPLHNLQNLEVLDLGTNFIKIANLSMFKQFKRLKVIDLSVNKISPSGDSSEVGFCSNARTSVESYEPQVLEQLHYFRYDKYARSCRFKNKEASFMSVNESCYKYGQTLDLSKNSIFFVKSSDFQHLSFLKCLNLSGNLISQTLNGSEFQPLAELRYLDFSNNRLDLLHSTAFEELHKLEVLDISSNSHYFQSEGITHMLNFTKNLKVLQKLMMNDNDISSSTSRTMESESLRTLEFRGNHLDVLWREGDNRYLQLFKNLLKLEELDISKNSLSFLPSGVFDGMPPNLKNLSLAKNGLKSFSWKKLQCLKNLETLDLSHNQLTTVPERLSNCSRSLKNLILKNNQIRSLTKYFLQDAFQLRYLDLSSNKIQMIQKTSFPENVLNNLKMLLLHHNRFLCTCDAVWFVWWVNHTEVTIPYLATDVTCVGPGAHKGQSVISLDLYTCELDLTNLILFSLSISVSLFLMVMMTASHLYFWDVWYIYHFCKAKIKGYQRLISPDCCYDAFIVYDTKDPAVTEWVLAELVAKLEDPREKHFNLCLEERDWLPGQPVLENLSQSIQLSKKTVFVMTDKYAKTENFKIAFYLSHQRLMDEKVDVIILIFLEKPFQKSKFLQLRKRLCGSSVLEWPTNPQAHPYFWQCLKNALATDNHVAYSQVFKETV
Method in brief: (§1)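 Screening used HEK-Blue cells overexpressing one human TLR (7, 8 or 9) and an IFN-β minimal promoter–NF-κB/AP-1 SEAP construct. Stimulation lasted 22 h at 37 °C with receptor-specific agonist: gardiquimod, R848 or ODN2006 at 7.5 μM, 15.9 μM and 5 nM.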

[2] = target: T2, human TLR9 (Homo sapiens, UniProt Q9NR96); assay: TLR9 inhibition reporter assay (HEK-Blue SEAP reporter); details: HEK-Blue cells overexpressing human TLR9; ODN2006 5 nM; 22 hour incubation
T2 construct: host or cells: HEK-Blue cells
T2 sequence (Q9NR96 26-1032): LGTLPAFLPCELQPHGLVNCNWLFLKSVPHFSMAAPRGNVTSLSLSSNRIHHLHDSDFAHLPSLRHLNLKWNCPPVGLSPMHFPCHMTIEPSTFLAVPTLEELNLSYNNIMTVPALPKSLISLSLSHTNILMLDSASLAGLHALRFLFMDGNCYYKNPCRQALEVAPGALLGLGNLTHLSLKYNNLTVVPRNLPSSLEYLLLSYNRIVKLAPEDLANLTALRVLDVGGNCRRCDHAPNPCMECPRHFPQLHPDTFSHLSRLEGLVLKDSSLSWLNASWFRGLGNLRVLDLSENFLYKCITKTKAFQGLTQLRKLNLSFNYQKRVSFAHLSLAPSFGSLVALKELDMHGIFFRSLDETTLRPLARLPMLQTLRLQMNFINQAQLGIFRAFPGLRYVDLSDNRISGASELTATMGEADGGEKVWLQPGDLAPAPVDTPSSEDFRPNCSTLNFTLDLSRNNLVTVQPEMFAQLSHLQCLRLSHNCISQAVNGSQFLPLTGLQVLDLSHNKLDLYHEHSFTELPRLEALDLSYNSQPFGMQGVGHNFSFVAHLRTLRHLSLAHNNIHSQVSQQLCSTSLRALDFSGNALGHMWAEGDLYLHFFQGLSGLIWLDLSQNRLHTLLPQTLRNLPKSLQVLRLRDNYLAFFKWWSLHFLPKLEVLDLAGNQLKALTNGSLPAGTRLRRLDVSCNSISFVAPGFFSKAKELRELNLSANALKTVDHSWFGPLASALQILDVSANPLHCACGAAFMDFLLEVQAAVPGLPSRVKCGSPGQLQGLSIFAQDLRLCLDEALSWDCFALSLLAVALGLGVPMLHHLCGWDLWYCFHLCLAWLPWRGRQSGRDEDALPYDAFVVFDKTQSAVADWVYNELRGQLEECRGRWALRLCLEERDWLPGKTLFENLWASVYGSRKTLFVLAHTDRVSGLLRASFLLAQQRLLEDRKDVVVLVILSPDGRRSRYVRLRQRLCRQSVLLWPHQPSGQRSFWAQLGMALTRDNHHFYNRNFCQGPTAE
Method in brief: as §1

[3] = target: T3, human TLR8 (Homo sapiens, UniProt Q9NR97); assay: TLR8 inhibition reporter assay (HEK-Blue SEAP reporter); details: HEK-Blue cells overexpressing human TLR8; R848 15.9 μM; 22 hour incubation
T3 construct: host or cells: HEK-Blue cells
T3 sequence (Q9NR97 27-1041): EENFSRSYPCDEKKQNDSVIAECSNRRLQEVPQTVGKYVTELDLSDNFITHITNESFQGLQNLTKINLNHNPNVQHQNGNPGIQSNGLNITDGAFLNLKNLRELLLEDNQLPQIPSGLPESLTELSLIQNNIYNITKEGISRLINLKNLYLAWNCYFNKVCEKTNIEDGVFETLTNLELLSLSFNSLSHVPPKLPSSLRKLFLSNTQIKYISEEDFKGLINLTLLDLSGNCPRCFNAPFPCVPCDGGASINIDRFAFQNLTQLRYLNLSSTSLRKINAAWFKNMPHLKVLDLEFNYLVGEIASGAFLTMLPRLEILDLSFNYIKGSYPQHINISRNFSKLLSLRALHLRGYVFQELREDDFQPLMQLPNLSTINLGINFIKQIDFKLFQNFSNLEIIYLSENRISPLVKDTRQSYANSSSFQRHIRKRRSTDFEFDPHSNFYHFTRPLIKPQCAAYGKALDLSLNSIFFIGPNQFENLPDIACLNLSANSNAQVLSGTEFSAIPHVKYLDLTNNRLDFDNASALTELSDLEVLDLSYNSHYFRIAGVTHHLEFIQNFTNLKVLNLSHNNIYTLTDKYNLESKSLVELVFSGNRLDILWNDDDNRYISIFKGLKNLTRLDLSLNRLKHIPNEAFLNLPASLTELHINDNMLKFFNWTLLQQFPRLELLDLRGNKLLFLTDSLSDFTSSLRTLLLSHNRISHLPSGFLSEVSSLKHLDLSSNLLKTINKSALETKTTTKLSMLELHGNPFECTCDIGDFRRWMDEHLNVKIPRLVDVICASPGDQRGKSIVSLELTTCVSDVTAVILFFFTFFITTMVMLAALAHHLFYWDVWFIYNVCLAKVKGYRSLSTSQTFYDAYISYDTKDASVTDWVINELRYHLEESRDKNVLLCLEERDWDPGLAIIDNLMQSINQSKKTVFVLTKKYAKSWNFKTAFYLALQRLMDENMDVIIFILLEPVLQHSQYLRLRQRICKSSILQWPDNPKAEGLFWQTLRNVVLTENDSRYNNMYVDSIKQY
Method in brief: as §1

IC50 [1] [nM]	IC50 [2] [nM]	IC50 [3] [nM]	Structure (SMILES)
15	993	5.2	COc1ccc(-c2[nH]c3ccc(N4CCC(N5CCCNCC5)CC4)cc3c2C(C)C)cc1OC [Example 121, 5-(4-(1,4-diazepan-1-yl)piperidin-1-yl)-2-(3,4-dimethoxyphenyl)-3-isopropyl-1H-indole]
53	4740	14	COc1ccc(-c2[nH]c3ccc(N4CCNCC4)cc3c2C(C)C)cc1OC [Example 126, 2-(3,4-dimethoxyphenyl)-3-isopropyl-5-(piperazin-1-yl)-1H-indole, TFA Salt]
45	6320	15	CNCCN1CCN(c2ccc3[nH]c(-c4ccc(OC)c(OC)c4)c(C(C)C)c3c2)CC1 [Example 127, 2-(4-(2-(3,4-dimethoxyphenyl)-3-isopropyl-1H-indol-5-yl)piperazin-1-yl)-N-methylethanamine]
2.3	8100	0.41	CC(C)c1c(-c2ccnc3[nH]ccc23)[nH]c2ccc(N3CCNCC3)cc12 [Example 128, 4-(3-isopropyl-5-(piperazin-1-yl)-1H-indol-2-yl)-1H-pyrrolo[2,3-b]pyridine]
75	3320	22	CCc1c(-c2cc(OC)nc(OC)c2)[nH]c2ccc(N3CCNCC3)cc12 [Example 129, 2-(2,6-dimethoxypyridin-4-yl)-3-ethyl-5-(piperazin-1-yl)-1H-indole]
2	1160	7.8	Cc1cc2[nH]c(-c3ccnc4[nH]ncc34)c(C(C)C)c2cc1N1CCNCC1 [Example 130, 4-(3-isopropyl-6-methyl-5-(piperazin-1-yl)-1H-indol-2-yl)-1H-pyrazolo[3,4-b]pyridine]

More lines, now with the values behind:

Structure (SMILES)	IC50 [1] [nM]	IC50 [2] [nM]	IC50 [3] [nM]
COc1ccc(-c2[nH]c3ccc(N4CCC(N(C)C)C4)cc3c2C(C)C)cc1OC (stereo not drawn) [Example 120, 1-(2-(3,4-dimethoxyphenyl)-3-isopropyl-H-indol-5-yl)-N,N-dimethylpyrrolidin-3-amine]	118	3290	17
COc1ccc(-c2[nH]c3ccc(N4CCN(C5CCCN(C(C)C)CC5)CC4)cc3c2C(C)C)cc1OC (stereo not drawn) [Example 122, 2-(3,4-dimethoxyphenyl)-3-isopropyl-5-(4-(1-isopropylazepan-4-yl)piperazin-1-yl)-1H-indole]	42	621	3.4
CCc1c(-c2ccc(OC)c(OC)c2)[nH]c2ccc(N3CCC(C4CCNCC4)CC3)cc12 [Example 131, 5-([4,4′-bipiperidin]-1-yl)-2-(3,4-dimethoxyphenyl)-3-ethyl-1H-indole]	187	648	132
COc1ccc(-c2[nH]c3ccc(N4CCC(OC5CCNCC5)CC4)cc3c2C(C)C)cc1OC [Example 133, 2-(3,4-dimethoxyphenyl)-3-isopropyl-5-(4-(piperidin-4-yloxy)piperidin-1-yl)-1H-indole]	16	339	55
CCc1c(-c2ccc(OC)c(OC)c2)[nH]c2ccc(N3CCC(OC4CCN(C)CC4)CC3)cc12 [Example 134, 2-(3,4-dimethoxyphenyl)-3-ethyl-5-(4-((1-methylpiperidin-4-yl)oxy)piperidin-1-yl)-1H-indole]	54	462	94
COc1ccc(-c2[nH]c3ccc(N4CC5CCCNC5C4)cc3c2C(C)C)cc1OC (stereo not drawn) [Example 135, 6-(2-(3,4-dimethoxyphenyl)-3-isopropyl-1H-indol-5-yl)octahydro-1H-pyrrolo[3,4-b]pyridine]	774	2460	95
COc1ccc(-c2[nH]c3ccc(N4CC5(CCCNC5)C4)cc3c2C(C)C)cc1OC [Example 136, 2-(2-(3,4-dimethoxyphenyl)-3-isopropyl-H-indol-5-yl)-2,6-diazaspiro[3.5]nonane]	542	2650	35
